{
  "source": "paper PMC10221029",
  "about": "“Photoprotection and Antiaging Activity of Extracts from Honeybush (Cyclopia sp.)—In Vitro Wound Healing and Inhibition of the Skin Extracellular Matrix Enzymes: Tyrosinase, Collagenase, Elastase and Hyaluronidase” (Pharmaceutics, 2023)",
  "target": "T1, Collagenase from Clostridium histolyticum",
  "T1 construct": "gene colG; ColG / ColH not distinguished",
  "assay": "spectrophotometric FALGPA hydrolysis, […] nm",
  "format": "biochemical",
  "details": "substrate FALGPA 0.8 mM; 50 mM tricine pH 7.5, 400 mM NaCl, 10 mM CaCl2; 15 min pre-incubation, room temperature",
  "data": [
    {"compound": "CC1(C)CC[C@]2(C(=O)O)CC[C@]3(C)C(=CC[C@@H]4[C@@]5(C)CC[C@H](O)C(C)(C)[C@@H]5CC[C@]43C)[C@@H]2C1", "note": "[oleanolic acid]", "values": [
      {"measurement": "Standard Oleanolic Acid *", "value": "25.66 ± 0.39", "unit": "µg/mL"}
    ]}
  ]
}
